The results in this text go back to PMC11246513, “Exploring bat-inspired cyclic tryptophan diketopiperazines as ABCB1 Inhibitors” (Communications Chemistry, 2024).

For data set [1], the target named is T1, ABCB1 (Homo sapiens, UniProt P08183). Format: biochemical. Also noted: human ABCB1-FLAG, purified and reconstituted into egg lecithin liposome.
The target in data set [2] is T2, bat ABCB1 (Pteropus alecto, UniProt L5JS44).
T2 construct: gene PAL_GLEAN10013639; endogenous ABCB1 in PaKiT03 cells
T2 sequence (L5JS44 1-1308): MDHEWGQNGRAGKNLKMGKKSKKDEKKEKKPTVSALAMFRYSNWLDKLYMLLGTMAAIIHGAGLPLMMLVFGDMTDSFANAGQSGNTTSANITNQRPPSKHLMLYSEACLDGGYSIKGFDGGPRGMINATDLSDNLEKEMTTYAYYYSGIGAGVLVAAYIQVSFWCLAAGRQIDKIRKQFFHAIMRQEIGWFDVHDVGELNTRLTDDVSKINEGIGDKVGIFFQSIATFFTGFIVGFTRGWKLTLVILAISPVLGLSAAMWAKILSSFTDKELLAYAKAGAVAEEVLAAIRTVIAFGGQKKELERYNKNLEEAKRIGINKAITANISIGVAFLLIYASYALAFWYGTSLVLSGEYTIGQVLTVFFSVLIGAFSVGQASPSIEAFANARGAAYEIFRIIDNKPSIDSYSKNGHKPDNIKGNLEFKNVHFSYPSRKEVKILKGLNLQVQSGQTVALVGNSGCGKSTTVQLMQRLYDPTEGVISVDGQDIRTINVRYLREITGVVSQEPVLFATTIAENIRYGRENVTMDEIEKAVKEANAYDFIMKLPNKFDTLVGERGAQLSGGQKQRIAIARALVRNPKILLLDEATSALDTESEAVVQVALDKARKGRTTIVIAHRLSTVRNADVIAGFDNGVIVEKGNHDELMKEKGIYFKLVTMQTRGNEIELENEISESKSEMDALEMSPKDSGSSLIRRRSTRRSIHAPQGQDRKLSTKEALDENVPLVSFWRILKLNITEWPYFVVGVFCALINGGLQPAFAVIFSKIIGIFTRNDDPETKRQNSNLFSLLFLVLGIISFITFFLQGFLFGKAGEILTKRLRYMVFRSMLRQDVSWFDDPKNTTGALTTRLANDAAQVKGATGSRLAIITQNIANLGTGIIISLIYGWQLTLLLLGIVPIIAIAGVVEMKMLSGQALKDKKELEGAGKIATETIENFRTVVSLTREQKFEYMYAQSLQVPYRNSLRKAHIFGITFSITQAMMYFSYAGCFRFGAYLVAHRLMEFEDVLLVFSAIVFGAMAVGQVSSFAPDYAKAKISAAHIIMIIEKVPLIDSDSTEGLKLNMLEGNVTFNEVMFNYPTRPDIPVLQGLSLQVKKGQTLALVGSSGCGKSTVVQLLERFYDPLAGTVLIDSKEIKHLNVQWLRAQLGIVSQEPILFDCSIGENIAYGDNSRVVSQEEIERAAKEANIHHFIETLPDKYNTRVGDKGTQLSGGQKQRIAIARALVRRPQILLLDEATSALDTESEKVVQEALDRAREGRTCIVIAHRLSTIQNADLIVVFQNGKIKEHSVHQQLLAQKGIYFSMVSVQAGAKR
As to the kind of experiment: rhodamine […] efflux inhibition, flow cytometry, PaKiT03 cells with ABCB1 KO control. The data set is classed as cell-based.

Data set [3] deals with T1, ABCB1. Nature of the data set: rhodamine […] efflux inhibition, flow cytometry, HEK293T ABCB1 cells. Format: cell-based. Also noted: human ABCB1 (ABCB1-TEV-His-FLAG) stably expressed in HEK293T.
Data set [4] has as its target T2, bat ABCB1. As to the kind of experiment: rhodamine […] efflux inhibition, flow cytometry, PaKiT03 cells. Format: cell-based.

T1 sequence (P08183 whole entry): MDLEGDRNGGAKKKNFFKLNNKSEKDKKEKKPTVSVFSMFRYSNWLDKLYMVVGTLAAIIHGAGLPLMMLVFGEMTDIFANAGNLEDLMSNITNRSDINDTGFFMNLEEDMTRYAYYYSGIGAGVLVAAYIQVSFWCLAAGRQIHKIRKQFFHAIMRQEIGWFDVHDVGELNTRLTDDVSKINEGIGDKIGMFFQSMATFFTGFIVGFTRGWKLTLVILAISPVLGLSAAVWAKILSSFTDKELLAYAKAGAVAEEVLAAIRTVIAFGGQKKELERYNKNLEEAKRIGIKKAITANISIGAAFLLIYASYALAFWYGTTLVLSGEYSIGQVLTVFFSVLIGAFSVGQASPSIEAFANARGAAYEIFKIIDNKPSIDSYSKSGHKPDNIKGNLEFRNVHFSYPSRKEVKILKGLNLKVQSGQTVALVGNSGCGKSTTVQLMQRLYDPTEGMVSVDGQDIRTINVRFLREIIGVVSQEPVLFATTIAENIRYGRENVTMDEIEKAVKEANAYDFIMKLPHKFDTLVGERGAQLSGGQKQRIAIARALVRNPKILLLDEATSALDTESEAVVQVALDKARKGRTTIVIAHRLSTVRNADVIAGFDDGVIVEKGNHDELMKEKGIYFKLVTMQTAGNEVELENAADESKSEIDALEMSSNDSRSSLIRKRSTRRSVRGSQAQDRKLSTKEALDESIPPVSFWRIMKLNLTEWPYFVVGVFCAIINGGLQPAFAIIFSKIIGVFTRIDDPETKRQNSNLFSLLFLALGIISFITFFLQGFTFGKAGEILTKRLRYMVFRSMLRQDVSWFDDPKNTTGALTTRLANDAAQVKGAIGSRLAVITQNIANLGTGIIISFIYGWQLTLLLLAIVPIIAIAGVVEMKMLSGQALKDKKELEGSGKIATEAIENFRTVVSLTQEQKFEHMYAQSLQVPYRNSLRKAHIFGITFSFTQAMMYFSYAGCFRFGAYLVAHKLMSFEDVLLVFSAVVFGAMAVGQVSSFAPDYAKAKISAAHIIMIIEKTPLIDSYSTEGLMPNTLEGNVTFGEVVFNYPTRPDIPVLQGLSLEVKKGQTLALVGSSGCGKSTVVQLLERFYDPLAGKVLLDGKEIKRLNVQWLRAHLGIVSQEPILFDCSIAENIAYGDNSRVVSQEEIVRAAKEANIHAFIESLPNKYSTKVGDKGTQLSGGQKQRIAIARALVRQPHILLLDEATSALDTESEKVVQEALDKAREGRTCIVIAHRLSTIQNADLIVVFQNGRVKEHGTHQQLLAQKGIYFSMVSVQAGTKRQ

Take `O=C1N[C@@H](Cc2c[nH]c3ccccc23)C(=O)N[C@H]1Cc1c[nH]c2ccccc12` [Cyclo-(L-Trp-L-Trp)]: the “ATPase stimulation of purified reconstituted ABCB1 (ADP by HPLC); supported by d” value on ABCB1 [1] is ~ 2 mM.

On to `Cn1cc(C[C@@H]2NC(=O)[C@H](Cc3cn(C)c4ccccc34)NC2=O)c2ccccc21` [Cyclo-(L-1-methyl-Trp-L-1-methyl-Trp)], for which the “ATPase stimulation of purified reconstituted ABCB1 (ADP by HPLC); supported by d” value at ABCB1 [1] is “Cyclo-(L-1-methyl-Trp-L-1-methyl-Trp) consumed larger amounts of ATP than Cyclo-(L-Trp-L-Trp) in the in vitro ATPase assay”.

Turning to `O=C1N[C@@H](Cc2c[nH]c3ccccc23)C(=O)N2[C@H]1C[C@@]1(Cc3ccccc3)c3ccccc3N(Cc3ccccc3)[C@@H]21` [C3N-Dbn-Trp2], the IC50 against bat ABCB1 [2] stood at 900 nM; against ABCB1 [3] it was 5900 nM.

For the compound `COc1cc2c(cc1OC)CN(CCc1ccc(NC(=O)c3cc(OC)c(OC)cc3NC(=O)c3cnc4ccccc4c3)cc1)CC2` [tariquidar], the IC50 was determined as 2 nM at bat ABCB1 [4] and 16 nM against ABCB1 [3].
